Results reported in article PMC3564796, “Reversal of MRP7 (ABCC10)-Mediated Multidrug Resistance by Tariquidar” (PLoS ONE, 2013).

What was measured:
MRP7 (ABCC10) [1] = molecular target: T1, MRP7 (ABCC10) (Homo sapiens, UniProt Q5T3U5); assay: cellular efflux time course, HEK/MRP7 versus HEK/pcDNA; type: cell-based; conditions: labelled compound (3H); 0.01 µM; 37°C; 0-120 min
T1 construct: MRP7 expression vector stably transfected into HEK293 cells (HEK/MRP7); empty-vector HEK/pcDNA as control
T1 sequence (Q5T3U5 1-1492): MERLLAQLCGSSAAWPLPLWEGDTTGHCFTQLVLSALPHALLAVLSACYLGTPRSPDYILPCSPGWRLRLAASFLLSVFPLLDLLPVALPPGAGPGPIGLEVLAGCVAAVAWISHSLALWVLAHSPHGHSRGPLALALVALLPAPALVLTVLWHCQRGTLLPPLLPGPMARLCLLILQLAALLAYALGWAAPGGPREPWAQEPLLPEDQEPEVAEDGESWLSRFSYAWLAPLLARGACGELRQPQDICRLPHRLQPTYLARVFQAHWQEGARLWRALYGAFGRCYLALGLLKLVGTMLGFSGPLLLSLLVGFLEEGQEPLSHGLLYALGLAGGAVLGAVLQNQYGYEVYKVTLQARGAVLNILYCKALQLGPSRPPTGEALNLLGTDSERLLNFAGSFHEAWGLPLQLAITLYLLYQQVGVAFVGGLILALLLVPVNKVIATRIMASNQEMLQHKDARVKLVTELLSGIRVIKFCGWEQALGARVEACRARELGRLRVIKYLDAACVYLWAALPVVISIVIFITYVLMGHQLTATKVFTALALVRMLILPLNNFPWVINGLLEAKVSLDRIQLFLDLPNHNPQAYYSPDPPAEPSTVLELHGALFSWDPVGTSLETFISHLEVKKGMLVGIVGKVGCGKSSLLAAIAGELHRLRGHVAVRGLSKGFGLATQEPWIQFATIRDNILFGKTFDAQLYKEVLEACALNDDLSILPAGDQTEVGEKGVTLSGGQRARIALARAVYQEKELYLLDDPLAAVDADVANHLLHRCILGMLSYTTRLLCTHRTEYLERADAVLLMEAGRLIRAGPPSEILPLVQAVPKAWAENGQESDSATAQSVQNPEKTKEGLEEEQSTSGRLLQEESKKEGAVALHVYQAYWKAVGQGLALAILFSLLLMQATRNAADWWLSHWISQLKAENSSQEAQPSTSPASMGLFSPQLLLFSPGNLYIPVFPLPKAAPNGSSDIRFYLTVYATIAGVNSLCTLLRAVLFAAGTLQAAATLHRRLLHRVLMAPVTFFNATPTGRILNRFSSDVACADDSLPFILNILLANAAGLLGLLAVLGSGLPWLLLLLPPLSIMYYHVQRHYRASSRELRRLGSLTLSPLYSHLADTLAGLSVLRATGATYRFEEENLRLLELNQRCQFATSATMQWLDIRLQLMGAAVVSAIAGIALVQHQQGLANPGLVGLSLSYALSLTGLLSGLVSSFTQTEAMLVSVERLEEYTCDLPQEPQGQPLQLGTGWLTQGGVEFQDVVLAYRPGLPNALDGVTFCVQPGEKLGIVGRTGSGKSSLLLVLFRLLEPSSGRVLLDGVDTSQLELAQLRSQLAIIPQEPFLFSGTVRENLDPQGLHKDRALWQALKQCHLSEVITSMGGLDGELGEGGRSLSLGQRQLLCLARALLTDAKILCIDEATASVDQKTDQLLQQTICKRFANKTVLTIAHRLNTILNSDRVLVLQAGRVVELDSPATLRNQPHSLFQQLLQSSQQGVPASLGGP

MRP7 (ABCC10) [2] = molecular target: T1, MRP7 (ABCC10); assay: [3H]-paclitaxel accumulation in HEK/MRP7 cells; type: cell-based; conditions: 4 h treatment; 0.01 µM [3H]-paclitaxel (methods; Figure 5 legend prints 0.1 µM); 37°C; inhibitor of efflux

Row | Structure (SMILES) | cellular efflux time course, HEK/MRP7 versus HEK/pcDNA (MRP7 (ABCC10) [1]) | fold [3H]-paclitaxel accumulation at 0.3 μM (MRP7 (ABCC10) [2]) [fold]
1 | CC(=O)O[C@H]1C(=O)[C@@]2(C)[C@H]([C@H](OC(=O)c3ccccc3)[C@]3(O)C[C@H](OC(=O)[C@H](O)[C@@H](NC(=O)c4ccccc4)c4ccccc4)C(C)=C1C3(C)C)[C@]1(OC(C)=O)CO[C@@H]1C[C@@H]2O [[^3H]-paclitaxel] | HEK/MRP7 cells, but not the parental HEK/pcDNA cells, rapidly effluxed [^3H]-paclitaxel | 
2 | COc1cc2c(cc1OC)CN(CCc1ccc(NC(=O)c3cc(OC)c(OC)cc3NC(=O)c3cnc4ccccc4c3)cc1)CC2 [Tariquidar] |  | 1.8
